Data reported in patent US20040253255A1, “Biological compositions and methods for treatment of nasopharyngeal cancer” (priority 2003, published 2004).
Where two headings read alike, the source gives them in different places.

Assays:
[1] = test system: human nasopharyngeal cancer; assay type: in vivo; conditions: tumor-bearing mice, 30 consecutive days of treatment, sacrificed on 31st day
Procedure: The mice injected with tumor cells were divided into 4 experimental groups of ten mice per group and one control group. The four experimental groups were triplicated (i.e., using a total of 120 mice in the experimental groups).
The mice in group CK2 also started receiving saline on the same day as the other four groups. The biological compositions, untreated yeast cells and saline were administered orally by a feeding tube and the CTX by intravenous injection for 30 consecutive days.

[2] = test system: human nasopharyngeal cancer; assay type: in vivo, mice; conditions: for Number of live animals remaining in the groups after 30 days of treatment: mice, 30 per group
Procedure: The biological composition comprising […] per ml of activated and conditioned yeast cells of the strain Saccharomyces carlsbergensis Hansen strain AS2.116 was prepared by the methods described in Section 5.1 and subsections therein.
The animals were prepared in a similar manner as described in Section 8.1.
The mice injected with tumor cells were divided into 4 experimental groups of […] per group and one control group. The four experimental groups were triplicated […]. In group 2AY, the mice received 0.3 ml of the biological composition once per day. In group 2NY, the mice received 0.3 ml of the untreated yeast cells once per day. In group 2CTX, the mice were injected intravenously with 30 mg of cyclophosphamide (CTX) per kg body weight per day. In group 2CK1, the mice received 0.3 ml of physiological saline once per day.
The mice received the biological compositions, untreated yeast cells, CTX or saline on the same day as the tumor cells were transplanted. The mice in group 2CK2 also started receiving saline on the same day as the other four groups. The biological compositions, untreated yeast cells and saline were administered orally by a feeding tube and the CTX by intravenous injection for 30 consecutive days. The mice were observed over 6 months from the day of tumor inoculation and survival was recorded. The weight of the mice and the weight of the tumor were determined by standard techniques.

[3] = test system: human nasopharyngeal cancer; assay: rat model of human nasopharyngeal cancer, growth of the tumor; assay type: in vivo; conditions: tumor-bearing Wistar rats, 21 consecutive days of treatment, sacrificed on 22nd day
Procedure: (§1) The biological composition comprising 10^8 cells per ml of activated and conditioned yeast cells of the strain Saccharomyces carlsbergensis Hansen strain AS2.116 was prepared by the methods described in Section 5.1 and subsections therein.
The animals used to generate the nasopharyngeal cancer cells for the experiments were Wistar rats, male and female, 190 to 210 gram in body weight. The rats were starved for 24 hours before the surgery.
Human nasopharyngeal cancer samples (obtainable from Cancer Institute, The Chinese Academy of Medical Sciences, Beijing, China) were carefully selected before, during, and after surgery in order to ensure engraftment occurred at the original position in the rat. The nasopharyngeal cancer samples were obtained from patients who have not received any radiation, chemotherapy or immune enhancement treatment. Nasopharyngeal cancer samples were divided into sections of about 1 mm^3 in size and immediately stored in RPMI-1640 suspension after removal from the human patient.
The animals were generally anaesthetized. […]
The rats received the biological compositions, untreated yeast cells, TSPA or saline on the same day as the tumor cells were transplanted. […] On the 22nd day from tumor inoculation, the rats were sacrificed and the weight of the rats as well as the weight of the tumor were determined by standard techniques.

[4] = test system: human nasopharyngeal cancer; assay: rat model of human nasopharyngeal cancer, survival time; assay type: in vivo, Wistar rats; conditions: for Number of live animals remaining in the groups after 21 days of treatment: rats, 30 per group
Procedure: as §1
The animals were prepared in a similar manner as described in Section 6.1.
The rats transplanted with tumor cells were divided into 4 experimental groups of ten rats per group and one control group. The four experimental groups were triplicated (i.e., using a total of 120 rats in the experimental groups). In group 2AY, the rats received 2.0 ml of the biological composition once per day. In group 2NY, the rats received 2.0 ml of the untreated yeast cells once per day. In group 2TSPA, the rats were injected intravenously 1.5 mg of thiotepa (TSPA) per kg body weight per day. In group 2CK1, the rats received 2.0 ml of physiological saline once per day.
The rats received the biological compositions, untreated yeast cells, TSPA or saline on the same day as the tumor cells were transplanted. The rats in group 2CK2 also started receiving saline on the same day as the other four groups. The biological compositions, untreated yeast cells and saline were administered orally by a feeding tube and the TSPA by intravenous injection for 21 consecutive days. The rats were observed over 6 months from the day of tumor inoculation and survival was recorded. The weight of the rats and the weight of the tumor were determined by standard techniques.

[5] = 0 month after cessation of treatment
[6] = 1 month after cessation of treatment
[7] = 2 months after cessation of treatment
[8] = 3 months after cessation of treatment
[9] = 4 months after cessation of treatment
[10] = 5 months after cessation of treatment
[11] = 6 months after cessation of treatment
[12] = rats that survived, observed over 6 months
[13] = mice that survived, observed over 6 months

O=P1(N(CCCl)CCCl)NCCCO1 (stereo not drawn) [CTX, cyclophosphamide]
mean weight of mice and standard deviation [1]: 19.7 ± 2.4 g
mean weight of tumor nodules and standard deviation [1]: 0.86 ± 0.13 g
Number of live animals remaining in the groups after 30 days of treatment [2, 5]: 30
Number of live animals remaining in the groups after 30 days of treatment [2, 6]: 27
Number of live animals remaining in the groups after 30 days of treatment [2, 7]: 17
Number of live animals remaining in the groups after 30 days of treatment [2, 8]: 11
Number of live animals remaining in the groups after 30 days of treatment [2, 9]: 3
Number of live animals remaining in the groups after 30 days of treatment [2, 10]: 0
Number of live animals remaining in the groups after 30 days of treatment [2, 11]: 0
survival of mice ([2]; observed over 6 months): all died during the experiment

S=P(N1CC1)(N1CC1)N1CC1 [TSPA, thiotepa]
mean weight of rats and standard deviation [3]: 207 ± 3.8 g
mean weight of tumor nodules and standard deviation [3]: 1.6 ± 0.74 mg
survival of rats ([4]; from injection of tumor cells): all died after four months from injection of tumor cells
mean weight of rats and standard deviation [4, 12]: all animals dead
mean weight of tumor nodules and standard deviation [4, 12]: all animals dead
Number of live animals remaining in the groups after 21 days of treatment [4, 5]: 30
Number of live animals remaining in the groups after 21 days of treatment [4, 6]: 26
Number of live animals remaining in the groups after 21 days of treatment [4, 7]: 24
Number of live animals remaining in the groups after 21 days of treatment [4, 8]: 17
Number of live animals remaining in the groups after 21 days of treatment [4, 9]: 7
Number of live animals remaining in the groups after 21 days of treatment [4, 10]: 0
Number of live animals remaining in the groups after 21 days of treatment [4, 11]: 0
mean weight of mice and standard deviation [2, 13]: all animals dead
mean weight of tumor nodules and standard deviation [2, 13]: all animals dead
